Assay results as given in patent publication US20240124417A1, “COMPOUNDS USEFUL AS IMMUNOMODULATORS” (Bristol-Myers Squibb Company, priority 2019, published 2024).

Target: T1, PD-1/PD-L1 (Homo sapiens, UniProt Q9NZQ7)
T1 construct: TVMV protease site linker (C); made in house; host or cells: HEK293T cells
Test: PD-1/PD-L1 Homogenous Time-Resolved Fluorescence (HTRF) binding assay
Settings: PD-L1-His 10 nM, PD-1-Ig 20 nM
Outline: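 Inhibitors pre-incubated 15 min with PD-L1-His extracellular domain (10 nM final) in dPBS with 0.1% BSA and 0.05% Tween-20, then PD-1-Ig (20 nM final) added for a further 15 min. Read-out by HTRF with europium cryptate anti-Ig (1 nM) and APC anti-His (20 nM). Related pairs: PD-1-Ig/PD-L2-His (20/5 nM), CD80-His/PD-L1-Ig (100/10 nM).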

T1 sequence (Q9NZQ7 18-239): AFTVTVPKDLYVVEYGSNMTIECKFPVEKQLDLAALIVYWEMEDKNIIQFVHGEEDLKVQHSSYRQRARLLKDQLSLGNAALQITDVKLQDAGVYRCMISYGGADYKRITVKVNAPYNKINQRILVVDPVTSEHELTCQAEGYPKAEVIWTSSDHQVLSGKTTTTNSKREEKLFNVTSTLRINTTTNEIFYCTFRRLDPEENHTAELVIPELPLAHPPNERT

Point of comparison: `Cc1c(COc2cc(OCc3cncc(C#N)c3)c(CNCCc3nc4ccccc4[nH]3)cc2Cl)cccc1-c1cccc(OCCCN2CC[C@@H](O)C2)c1C` [Example 2505, (R)-5-((2-(((2-(1H-benzo[d]imidazol-2-yl)ethyl)amino)methyl)-4-chloro-5-((3′-(3-(3 hydroxypyrrolidin-1-yl)propoxy)-2,2′-dimethyl-[1,1′-biphenyl]-3yl)methoxy)phenoxy)methyl)nicotinonitrile], IC50 6.7 nM. Against it:
- Cc1c(COc2cc(OCc3cncc(C#N)c3)c(CN3CCCC(c4ccn[nH]4)C3)cc2Cl)cccc1-c1cccc(OCC2CCCN(C)C2)c1Cl (centres unmarked) [Example 1024, 5-((2-((3-(1H-Pyrazol-5-yl)piperidin-1-yl)methyl)-4-chloro-5-((2′-chloro-2-methyl-3′-((1-methylpiperidin-3-yl)methoxy)-[1,1′-biphenyl]-3-yl)methoxy)phenoxy)methyl)-nicotinonitrile] — 9.6-fold lower, 0.7 nM
- Cc1c(COc2cc(OCc3cncc(C#N)c3)c(CN(C)Cc3ccccn3)cc2Cl)cccc1-c1cccc(OCCCN2CC[C@@H](O)C2)c1C [Example 2028, (R)-5-((4-chloro-5-((3′-(3-(3-hydroxypyrrolidin-1-yl)propoxy)-2,2′-dimethyl-[1,1′-biphenyl]-3-yl)methoxy)-2-((methyl(pyridin-2-ylmethyl)amino)methyl)phenoxy)methyl)nicotinonitrile] — 34-fold lower, 0.2 nM
- Cc1c(COc2cc(OCc3cncc(C#N)c3)c(CNCc3cc(C4CC4)on3)cc2Cl)cccc1-c1cccc(OCC2CCCN(C)C2)c1Cl (centres unmarked) [Example 2607, 5-((4-chloro-5-((2′-chloro-2-methyl-3′-((1-methylpiperidin-3-yl)methoxy)-[1,1′-biphenyl]-3-yl)methoxy)-2-((((5-cyclopropylisoxazol-3-yl)methyl)amino)methyl)phenoxy)methyl)nicotinonitrile] — 1.6-fold lower, 4.2 nM
- CC(=O)NC1CCN(CCCOc2cccc(-c3cccc(COc4cc(OCc5cncc(C#N)c5)c(CNc5nnn[nH]5)cc4Cl)c3C)c2Cl)CC1 [Example 1056, N-(1-(3-((3′-((4-(((1H-Tetrazol-5-yl)amino)methyl)-2-chloro-5-((5-cyanopyridin-3-yl)-methoxy)phenoxy)methyl)-2-chloro-2′-methyl-[1,1′-biphenyl]-3-yl)oxy)propyl)piperidin-4-yl)acetamide] — 3.7-fold lower, 1.8 nM
- Cc1c(COc2cc(OCc3cncc(C#N)c3)c(CN(C)Cc3csc(N)n3)cc2Cl)cccc1-c1cccc(OCCCN2CC[C@@H](O)C2)c1C [Example 2521, (R)-5-((2-((((2-aminothiazol-4-yl)methyl)(methyl)amino)methyl)-4-chloro-5-((3′-(3-(3-hydroxypyrrolidin-1-yl)propoxy)-2,2′-dimethyl-[1,1′-biphenyl]-3-yl)methoxy)phenoxy)methyl)nicotinonitrile] — 9.6-fold lower, 0.7 nM
- Cc1c(COc2cc(OCc3cncnc3)c(CNCc3cn[nH]c3)cc2Cl)cccc1-c1cccc(OCCCN2CC[C@@H](O)C2)c1C [Example 2051, (R)-1-(3-((3′-((4-((((1H-pyrazol-4-yl)methyl)amino)methyl)-2-chloro-5-(pyrimidin-5-ylmethoxy)phenoxy)methyl)-2,2′-dimethyl-[1,1′-biphenyl]-3-yl)oxy)propyl)pyrrolidin-3-ol] — 3.4-fold lower, 2 nM
- Cc1c(COc2cc(OCc3cncc(C#N)c3)c(CNCc3cncs3)cc2Cl)cccc1-c1cccc(OCC2CCCN(C)C2)c1Cl (centres unmarked) [Example 2576, 5-((4-chloro-5-((2′-chloro-2-methyl-3′-((1-methylpiperidin-3-yl)methoxy)-[1,1′-biphenyl]-3-yl)methoxy)-2-(((thiazol-5-ylmethyl)amino)methyl)phenoxy)methyl)nicotinonitrile] — 2.7-fold lower, 2.5 nM
- Cc1c(COc2cc(OCc3cncc(C#N)c3)c(CNCc3nccs3)cc2Cl)cccc1-c1cccc(OCCCN2CC[C@@H](O)C2)c1C [Example 2530, (R)-5-((4-chloro-5-((3′-(3-(3-hydroxypyrrolidin-1-yl)propoxy)-2,2′-dimethyl-[1,1′-biphenyl]-3-yl)methoxy)-2-(((thiazol-2-ylmethyl)amino)methyl)phenoxy)methyl)nicotinonitrile] — within 1.5-fold, 6.2 nM
- Cc1c(COc2cc(OCc3cncc(C#N)c3)c(CN(C)Cc3cn[nH]c3)cc2Cl)cccc1-c1cccc(OCC2CCCN(C)C2)c1Cl (centres unmarked) [Example 2581, 5-((2-((((1H-pyrazol-4-yl)methyl)(methyl)amino)methyl)-4-chloro-5-((2′-chloro-2-methyl-3′-((1-methylpiperidin-3-yl)methoxy)-[1,1′-biphenyl]-3-yl)methoxy)phenoxy)methyl)nicotinonitrile] — 2-fold lower, 3.4 nM
- Cc1c(COc2cc(OCc3cncc(C#N)c3)c(CNCc3nnc4ccc(C(F)(F)F)cn34)cc2Cl)cccc1-c1cccc(OCC2CCCN(C)C2)c1Cl (centres unmarked) [Example 2619, 5-((4-chloro-5-((2′-chloro-2-methyl-3′-((1-methylpiperidin-3-yl)methoxy)-[1,1′-biphenyl]-3-yl)methoxy)-2-((((6-(trifluoromethyl)-[1,2,4]triazolo[4,3-a]pyridin-3-yl)methyl)amino)methyl)phenoxy)methyl)nicotinonitrile] — 2.2-fold lower, 3.1 nM
- Cc1nc2ccc(CNCc3cc(Cl)c(OCc4cccc(-c5cccc(OCC6CCCN(C)C6)c5Cl)c4C)cc3OCc3cncc(C#N)c3)cc2[nH]1 (centres unmarked) [Example 2609, 5-((4-chloro-5-((2′-chloro-2-methyl-3′-((1-methylpiperidin-3-yl)methoxy)-[1,1′-biphenyl]-3-yl)methoxy)-2-((((2-methyl-1H-benzo[d]imidazol-6-yl)methyl)amino)methyl)phenoxy)methyl)nicotinonitrile] — 6.1-fold lower, 1.1 nM
- Cc1c(COc2cc(OCc3cncc(C#N)c3)c(CNCc3nn(C)c4ccccc34)cc2Cl)cccc1-c1cccc(OCCCN2CC[C@@H](O)C2)c1C [Example 2555, (R)-5-((4-chloro-5-((3′-(3-(3-hydroxypyrrolidin-1-yl)propoxy)-2,2′-dimethyl-[1,1′-biphenyl]-3-yl)methoxy)-2-((((1-methyl-1H-indazol-3-yl)methyl)amino)methyl)phenoxy)methyl)nicotinonitrile] — 17-fold lower, 0.4 nM
- Cc1c(COc2cc(OCc3cnccn3)c(CNCc3ncccn3)cc2Cl)cccc1-c1cccc(OCC2CCCN(C)C2)c1Cl (centres unmarked) [Example 2059, N-(5-chloro-4-((2′-chloro-2-methyl-3′-((1-methylpiperidin-3-yl)methoxy)-[1,1′-biphenyl]-3-yl)methoxy)-2-(pyrazin-2-ylmethoxy)benzyl)-1-(pyrimidin-2-yl)methanamine] — 1.5-fold lower, 4.4 nM
- Cc1c(COc2cc(OCc3cncc(C#N)c3)c(CN3CCCC(c4nnc[nH]4)C3)cc2Cl)cccc1-c1cccc(OCCCN2CC[C@@H](O)C2)c1C (stereo partly drawn) [Example 1008, 5-((2-((3-(4H-1,2,4-Triazol-3-yl)piperidin-1-yl)methyl)-4-chloro-5-((3′-(3-((R)-3-hydroxypyrrolidin-1-yl)propoxy)-2,2′-dimethyl-[1,1′-biphenyl]-3-yl)methoxy)phenoxy)-methyl)nicotinonitrile] — 1.6-fold lower, 4.2 nM
- Cc1c(COc2cc(OCc3cncc(C#N)c3)c(CNCc3csc(N)n3)cc2Cl)cccc1-c1cccc(OCCCN2CC[C@@H](O)C2)c1C [Example 2520, (R)-5-((2-((((2-aminothiazol-4-yl)methyl)amino)methyl)-4-chloro-5-((3′-(3-(3-hydroxypyrrolidin-1-yl)propoxy)-2,2′-dimethyl-[1,1′-biphenyl]-3-yl)methoxy)phenoxy)methyl)nicotinonitrile] — 2.2-fold lower, 3.1 nM
- Cc1c(COc2cc(OCc3cncc(C#N)c3)c(CNCc3cc[nH]n3)cc2Cl)cccc1-c1cccc(OCCCN2CCC(O)(CO)CC2)c1Cl [Example 2012, 5-((2-((((1H-pyrazol-3-yl)methyl)amino)methyl)-4-chloro-5-((2′-chloro-3′-(3-(4-hydroxy-4-(hydroxymethyl)piperidin-1-yl)propoxy)-2-methyl-[1,1′-biphenyl]-3-yl)methoxy)phenoxy)methyl)nicotinonitrile] — 2.6-fold lower, 2.6 nM
- Cc1c(COc2cc(OCc3cncc(C#N)c3)c(CN(C)Cc3cccnn3)cc2Cl)cccc1-c1cccc(OCCCN2CC[C@@H](O)C2)c1C [Example 2031, (R)-5-((4-chloro-5-((3′-(3-(3-hydroxypyrrolidin-1-yl)propoxy)-2,2′-dimethyl-[1,1′-biphenyl]-3-yl)methoxy)-2-((methyl(pyridazin-3-ylmethyl)amino)methyl)phenoxy)methyl)nicotinonitrile] — 34-fold lower, 0.2 nM
- Cc1c(COc2cc(OCc3cncc(C#N)c3)c(CNCc3cccnc3Cl)cc2Cl)cccc1-c1cccc(OCC2CCCN(C)C2)c1Cl (centres unmarked) [Example 2621, 5-((4-chloro-5-((2′-chloro-2-methyl-3′-((1-methylpiperidin-3-yl)methoxy)-[1,1′-biphenyl]-3-yl)methoxy)-2-((((2-chloropyridin-3-yl)methyl)amino)methyl)phenoxy)methyl)nicotinonitrile] — within 1.5-fold, 8.9 nM
- Cc1c(COc2cc(OCc3cncc(C#N)c3)c(CN(C)CCc3ncn[nH]3)cc2Cl)cccc1-c1cccc(OCCCN2CC[C@@H](O)C2)c1C [Example 2509, (R)-5-((2-(((2-(1H-1,2,4-triazol-5-yl)ethyl)(methyl)amino)methyl)-4-chloro-5-((3′-(3-(3-hydroxypyrrolidin-1-yl)propoxy)-2,2′-dimethyl-[1,1′-biphenyl]-3-yl)methoxy)phenoxy)methyl)nicotinonitrile] — 34-fold lower, 0.2 nM
